Data: publication PMC11314561, “Design and Synthesis of Novel Aminoindazole-pyrrolo[2,3-b]pyridine Inhibitors of IKKα That Selectively Perturb Cellular Non-Canonical NF-κB Signalling” (Molecules, 2024)

Legend:
[1] = tested on: IKKβ-mediated IκBα degradation in U2OS cells; assay: TNFα-stimulated IκBα degradation, Western blotting; type: cell-based; conditions: for effect on TNFα-stimulated IκBα degradation: 0.3–30 µM
Experimental: (§1) To assess the translation of the biochemical potencies and selectivities described above to a cell-based setting, exemplars from the series were initially examined for inhibitory action against IKKs in the U2OS osteosarcoma cell line. This cell type was utilised to represent cells with a proliferative phenotype dependent on the constitutively activated IKKα-mediated non-canonical NF-κB pathway. Compounds 5r [SU1261]
(§2) U2OS cells were cultured in McCoy’s 5A Modified Medium, and PC-3M-Luc-C6 prostate cancer cells were cultured in Minimum Essential Medium (MEM), each containing 10% (v/v) Foetal Calf Serum (FCS), L-glutamine ([…]), and penicillin/streptomycin (250 units/mL; 100 μg/mL) and incubated in a humidified atmosphere at 37 °C with 5% (v/v) CO2. Cells were grown to near confluence and prior to experimentation rendered quiescent by serum deprivation for 24 h.
(§3) To examine the potential impact of compounds on canonical NF-κB signalling, cells were then exposed to vehicle (DMSO; 0.05% (v/v)) or increasing concentrations of compounds (0.01–30 µM) for 1 h prior to treatment with TNF⍺ (20 ng/mL) for 30 min. Whole-cell extracts were prepared, and the status of IκB⍺, phospho-p65 (Ser536), p65, and phospho-p105 ([…]) was also assessed by Western blotting.
(§4) Each figure/panel of Western blotting data represents one of at least three separate experiments. Western blots were scanned and imaged using Adobe Photoshop 5.0.2 software and polypeptide bands were semi-quantified by scanning densitometry using the Scion Image program. Data were normalised to fold expression/inhibition relative to ‘agonist plus vehicle’ treatment and expressed as mean ± s.e.m. IC50 values were established by curve fitting using the Hill equation.
(§5) Figure 11 Compound 5r [SU1261] inhibits FCS-stimulated p100 phosphorylation (Ser866/870) with no impact on TNFα-stimulated IkBα degradation and limited impact on phosphorylation of p65 (Ser536) in U2OS osteosarcoma cells. […] (0.3–30 µM) for 1 h prior to treatment with FCS (10% (v/v)) for 4 h, and phospho-p100 (Ser866/870) was assessed by Western blotting. […]

[2] = tested on: IKKβ-mediated p65 phosphorylation (Ser536) in U2OS cells; assay: TNFα-stimulated p65 (Ser536) phosphorylation, Western blotting; type: cell-based; conditions: Homo sapiens, 1 h pre-treatment, TNFα 30 min
Experimental: as §1, §2, §3, §4, §5

IKKα = biological target: T1, IKKα (Homo sapiens, UniProt O15111); assay: DELFIA kinase assay, IKKα; type: biochemical; conditions: for Ki: DELFIA kinase assay; for Selectivity for IKKα over IKKβ: ratio of Ki IKKβ to Ki IKKα
T1 sequence (O15111 1-745): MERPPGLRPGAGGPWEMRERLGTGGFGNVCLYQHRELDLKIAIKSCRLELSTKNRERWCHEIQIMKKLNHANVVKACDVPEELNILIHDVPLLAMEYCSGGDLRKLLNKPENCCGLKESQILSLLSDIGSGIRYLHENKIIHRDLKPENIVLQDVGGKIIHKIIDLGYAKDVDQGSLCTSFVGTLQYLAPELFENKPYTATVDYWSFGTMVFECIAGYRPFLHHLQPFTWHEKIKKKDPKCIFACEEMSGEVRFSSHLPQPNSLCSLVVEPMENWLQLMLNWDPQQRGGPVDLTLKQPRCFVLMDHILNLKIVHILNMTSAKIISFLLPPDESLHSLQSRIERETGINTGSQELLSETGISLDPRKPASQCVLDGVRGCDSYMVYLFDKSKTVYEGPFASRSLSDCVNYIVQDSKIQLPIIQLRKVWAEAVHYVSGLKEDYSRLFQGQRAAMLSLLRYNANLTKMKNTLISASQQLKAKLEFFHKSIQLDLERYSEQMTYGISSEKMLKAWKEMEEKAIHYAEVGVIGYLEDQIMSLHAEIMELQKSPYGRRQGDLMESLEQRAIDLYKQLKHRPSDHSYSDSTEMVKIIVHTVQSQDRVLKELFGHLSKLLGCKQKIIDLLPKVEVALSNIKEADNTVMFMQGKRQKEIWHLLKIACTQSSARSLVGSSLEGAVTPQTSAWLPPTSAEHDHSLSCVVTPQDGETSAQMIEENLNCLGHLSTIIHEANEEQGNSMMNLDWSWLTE
From the text: To examine the pyrrolo[2,3-b]pyridines as an alternative scaffold, we adopted the AIPP core because it had similar dimensions to SU909 (1), with HBD/HBA motifs positioned at the scaffold extremities to interact with both the hinge region and the G-loop wall of IKKα, a rationale we had previously proposed as the basis for imparting selectivity. A preliminary set of AIPP derivatives was designed and synthesised to explore its utility as an IKK-targeting scaffold, whilst incorporating additional functionality through which to introduce selectivity for the IKKα isoform (2–4; Figure 3). This was achieved by initially adopting two different approaches: either appending a hydrophobic moiety to the pyrrolo[2,3-b]pyridine motif as a fused form to afford the tricyclic derivatives 2 and 3, or as a phenyl substituent to introduce flexibility with respect to the central pyrrolo[2,3-b]pyridine moiety in 4. When assessed against IKKα and IKKβ using our in-house DELFIA kinase assay […] The pyrrolo[2,3-b]pyridine was bound to the hinge region in the classical HBA/HBD motif with the GK+3 amide backbone, whilst the aminoindazole projected towards the top of the pocket to interact with the G-loop (Figure 4A). […] In both isoforms, the 2-phenyl moiety protruded away from the hinge towards the exposed solvent area.
IKKα and IKKβ inhibitory activity were determined using a dissociation-enhanced ligand fluorescent immunoassay (DELFIA) based on the protocol of HTScan™ IKKβ Kinase Assay (Cell Signaling Technology, Danvers, MA, USA) as described in [24].

Row | IC50 ([1]; Homo sapiens, 1 h pre-treatment, TNFα 30 min) | IC50 [2] | Ki (IKKα) | Selectivity for IKKα over IKKβ (IKKα; listed as 6g [SU1349]) | Selectivity for IKKα over IKKβ (IKKα; listed as SU1349) | SMILES | effect on TNFα-stimulated IκBα degradation [1]
1 | 620 nM | 300 nM | 3 nM |  |  | Nc1n[nH]c2ccc(-c3ccnc4[nH]c(-c5ccccc5)cc34)cc12 [Compound 4] | 
2 |  | 5640 nM | 10 nM |  |  | Nc1n[nH]c2ccc(-c3ccnc4[nH]c(-c5cccc(OCc6ccccc6)c5)cc34)cc12 [Compound 5r [SU1261]] | did not impact
3 |  | > 30000 nM | 16 nM | 209 fold | 209.5 fold | Nc1n[nH]c2ccc(-c3ccnc4[nH]c(-c5ccnc(OCc6ccccc6)c5)cc34)cc12 [Compound 6g [SU1349]] | no significant inhibition
